Measurements reported in BindingDB's records for doi:10.1016/j.bioorg.2017.01.003 (Comsats Institute of Information Technology, 2017).

Legend:
[1] = molecular target: Intestinal-type alkaline phosphatase (Bos taurus, UniProt P19111); test: Alkaline Phosphatase Assay; details: pH 9.8; 37 °C
Procedure: Alkaline phosphatase assay was optimized and performed in the same way as previously reported method with slight modifications [Sergienko et al., Nat. Protoc., 5:1431-1439]. All compounds were analyzed at a final concentration of 200 μM (1% DMSO) by using assay buffer with composition of […] diethanolamine (DEA) (pH 9.8), 0.05 mM ZnCl2 and 2.5 mM MgCl2. The total reaction volume was kept 50 μL containing 10 μL of tested compound, 20 μL of b-TNAP (1:800 (0.8 units/mL) diluted enzyme in assay buffer) or c-IAP (1:800 (1 units/mL) diluted enzyme in assay buffer). After incubation for 3-5 min at 37 °C., the luminescence was measured as a pre-read using microplate reader (BioTek FLx800, Instruments, Inc. USA). Then, 20 μL of substrate (CDPstar®) (final concentration of 110 μM) was added to the reaction mixture to initiate the enzymatic reaction. The change in the luminescence was recorded after 15 min. at 37 °C. The activity of each compound was measured in comparison with control (without any inhibitor). Levamisole (2 mM per well) and L-phenylalanine (4 mM per well) were used as standards (positive control) against b-TNAP) and c-IAP), respectively.

[2] = Alkaline Phosphatase Assay; details: pH 9.8; 37 °C
5'-nucleotidase [3] = molecular target: 5'-nucleotidase (Homo sapiens, UniProt P21589); test: Ecto-5'-Nucleotidase Inhibition Assay; details: pH 7.4; 37 °C
5'-nucleotidase (Homo sapiens, UniProt P21589), sequence (P21589 whole entry): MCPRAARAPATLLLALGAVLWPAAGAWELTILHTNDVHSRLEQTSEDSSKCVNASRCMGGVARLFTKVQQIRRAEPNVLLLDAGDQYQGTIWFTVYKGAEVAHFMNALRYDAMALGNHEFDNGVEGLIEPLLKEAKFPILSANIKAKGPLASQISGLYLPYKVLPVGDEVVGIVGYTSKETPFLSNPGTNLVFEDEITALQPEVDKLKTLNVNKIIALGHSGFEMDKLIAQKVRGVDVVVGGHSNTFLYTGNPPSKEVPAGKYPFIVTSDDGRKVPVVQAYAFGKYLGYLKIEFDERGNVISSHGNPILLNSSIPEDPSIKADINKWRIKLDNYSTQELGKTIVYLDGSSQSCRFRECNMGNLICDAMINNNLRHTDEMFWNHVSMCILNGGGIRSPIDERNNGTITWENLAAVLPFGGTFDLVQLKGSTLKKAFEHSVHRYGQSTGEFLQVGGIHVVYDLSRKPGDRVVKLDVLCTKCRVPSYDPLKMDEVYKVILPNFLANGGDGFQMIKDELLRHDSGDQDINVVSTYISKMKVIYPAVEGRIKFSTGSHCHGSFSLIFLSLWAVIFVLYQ
Procedure: (§1) Then the mixture was placed in water bath at 99 °C for 20 min to stop the enzymatic reaction by thermal denaturation of protein. The aliquots of 50 μL of this reaction mixture were transferred into CE mini vials and injected hydrodynamically into the capillary under pressure of 0.5 psi for 5 s, followed by the application of 15 kV voltage for separation of substrate and product peaks.

5'-nucleotidase [4] = molecular target: T1, 5'-nucleotidase (Rattus norvegicus, UniProt P21588); test: Ecto-5'-Nucleotidase Inhibition Assay; details: pH 7.4; 37 °C
T1 sequence (P21588 whole entry): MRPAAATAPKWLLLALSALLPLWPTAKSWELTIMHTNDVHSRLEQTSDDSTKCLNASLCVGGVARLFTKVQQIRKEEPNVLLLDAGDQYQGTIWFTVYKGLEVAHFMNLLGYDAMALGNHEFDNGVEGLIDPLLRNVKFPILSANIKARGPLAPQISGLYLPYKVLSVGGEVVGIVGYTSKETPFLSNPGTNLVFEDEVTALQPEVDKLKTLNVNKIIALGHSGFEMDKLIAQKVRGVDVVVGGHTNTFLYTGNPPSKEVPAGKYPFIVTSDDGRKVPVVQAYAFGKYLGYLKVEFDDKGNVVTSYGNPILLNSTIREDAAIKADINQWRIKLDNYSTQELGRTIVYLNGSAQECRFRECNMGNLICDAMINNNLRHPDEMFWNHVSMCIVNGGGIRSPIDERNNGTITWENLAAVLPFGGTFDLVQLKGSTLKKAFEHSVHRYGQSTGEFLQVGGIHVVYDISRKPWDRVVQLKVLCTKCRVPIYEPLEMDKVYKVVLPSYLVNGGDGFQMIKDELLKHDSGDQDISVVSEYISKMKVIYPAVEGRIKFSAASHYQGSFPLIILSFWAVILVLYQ
Procedure: as §1

Intestinal-type alkaline phosphatase, sequence (P19111 whole entry): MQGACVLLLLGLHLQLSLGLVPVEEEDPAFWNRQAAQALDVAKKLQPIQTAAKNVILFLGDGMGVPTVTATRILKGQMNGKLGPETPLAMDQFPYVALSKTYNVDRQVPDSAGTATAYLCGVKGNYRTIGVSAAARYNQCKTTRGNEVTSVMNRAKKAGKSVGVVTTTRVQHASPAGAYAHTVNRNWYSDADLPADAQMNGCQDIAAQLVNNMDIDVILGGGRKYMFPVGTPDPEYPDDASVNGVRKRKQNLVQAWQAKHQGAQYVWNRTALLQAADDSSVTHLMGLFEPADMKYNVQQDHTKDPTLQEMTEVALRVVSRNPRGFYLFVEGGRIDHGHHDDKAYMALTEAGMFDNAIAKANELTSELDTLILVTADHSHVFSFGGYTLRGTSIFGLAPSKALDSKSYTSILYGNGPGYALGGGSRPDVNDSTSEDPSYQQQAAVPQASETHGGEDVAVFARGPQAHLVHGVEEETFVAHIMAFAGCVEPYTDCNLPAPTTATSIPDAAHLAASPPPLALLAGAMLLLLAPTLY

Compound | IC50 [1] | IC50 [2] | IC50 (5'-nucleotidase [3]) | IC50 (5'-nucleotidase [4])
COc1ccc(/C=C/C(=O)/C(=N/Nc2ccc(S(N)(=O)=O)cc2)N2CCOCC2)cc1 [(Z)-4-(2-((E)-4-(4-methoxyphenyl)-1-morpholino-2-oxobut-3-enylidene)hydrazinyl) benzenesulfonamide (4d)] | 1.71 µM | 0.33 µM | – | –
NS(=O)(=O)c1ccc(N/N=C(/C(=O)/C=C/c2ccccc2Br)N2CCOCC2)cc1 [(Z)-4-(2-((E)-4-(2-bromophenyl)-1-morpholino-2-oxobut-3-enylidene)hydrazinyl) benzenesulfonamide (4i)] | 1.21 µM | – | 2.92 µM | 22.4 µM
COc1cc(/C=C/C(=O)/C(=N/Nc2ccc(S(N)(=O)=O)cc2)N2CCOCC2)cc(OC)c1OC [(Z)-4-(2-((E)-1-morpholino-2-oxo-4-(3,4,5-Trimethoxyphenyl)but-3-enylidene) hydrazinyl)benzenesulfonamide (4f)] | 2.57 µM | – | 1.75 µM | 0.68 µM
NS(=O)(=O)c1ccc(N/N=C(/C(=O)/C=C/c2ccc(Cl)cc2Cl)N2CCOCC2)cc1 [(Z)-4-(2-((E)-4-(2,4-dichlorophenyl)-1-morpholino-2-oxobut-3-enylidene)hydrazinyl) benzenesulfonamide (4b)] | 0.68 µM | – | 3.32 µM | 2.85 µM
COc1ccc(/C=C/C(=O)/C(=N/Nc2ccc(S(N)(=O)=O)cc2)N2CCOCC2)cc1OC [(Z)-4-(2-((E)-4-(3,4-dimethoxyphenyl)-1-morpholino-2-oxobut-3-enylidene) hydrazinyl) benzenesulfonamide (4e)] | 0.35 µM | – | – | 7.41 µM
NS(=O)(=O)c1ccc(N/N=C(/C(=O)/C=C/c2ccccc2Cl)N2CCOCC2)cc1 [(Z)-4-(2-((E)-4-(2-chlorophenyl)-1-morpholino-2-oxobut-3-enylidene)hydrazinyl) benzenesulfonamide (4a)] | 0.12 µM | – | 11.6 µM | 6.43 µM

Now from value to compound, other results behind:

IC50 [1] | IC50 [2] | Compound | IC50 (5'-nucleotidase [3]) | IC50 (5'-nucleotidase [4])
0.73 µM | – | NS(=O)(=O)c1ccc(N/N=C(/C(=O)/C=C/c2cccc(F)c2)N2CCOCC2)cc1 [(Z)-4-(2-((E)-4-(3-fluorophenyl)-1-morpholino-2-oxobut-3-enylidene)hydrazinyl) benzenesulfonamide (4h)] | – | –
0.99 µM | – | COc1cccc(/C=C/C(=O)/C(=N/Nc2ccc(S(N)(=O)=O)cc2)N2CCOCC2)c1 [(Z)-4-(2-((E)-4-(3-methoxyphenyl)-1-morpholino-2-oxobut-3-enylidene)hydrazinyl) benzenesulfonamide (4c)] | – | –
0.44 µM | – | NS(=O)(=O)c1ccc(N/N=C(/C(=O)/C=C/c2ccccc2F)N2CCOCC2)cc1 [(Z)-4-(2-((E)-4-(2-fluorophenyl)-1-morpholino-2-oxobut-3-enylidene)hydrazinyl) benzene-sulfonamide (4g)] | – | –
0.74 µM | – | NS(=O)(=O)c1ccc(N/N=C(/C(=O)/C=C/c2cccc([N+](=O)[O-])c2)N2CCOCC2)cc1 [(Z)-4-(2-((E)-1-morpholino-4-(3-Nitrophenyl)-2-oxobut-3-enylidene)hydrazinyl) benzenesulfonamide (4j)] | – | –
